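In this assay, cells in 96-well plates receive the compound at five concentrations for 48 hours. Endpoints are linearly interpolated between the surrounding concentrations. GI50 is the concentration that inhibits growth by half. TGI is the concentration that stops growth completely.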
How the values were obtained:
Assay in all cases: NCI tumour cell line growth inhibition, 48 h
[1] = test system: UACC-257 melanoma
[2] = test system: 786-0 renal
[3] = test system: UACC-62 melanoma
[4] = test system: A549 NSCLC
[5] = test system: SK-MEL-2 melanoma
[6] = test system: SK-OV-3 ovarian
[7] = test system: OVCAR-5 ovarian
[8] = test system: MDA-MB-435
[9] = test system: MDA-MB-231 breast
[10] = test system: DU-145 prostate

Structure (SMILES)	TGI [1] [µM]	TGI [2] [µM]	TGI [3] [µM]	TGI [4] [µM]	TGI [5] [µM]	TGI [6] [µM]	GI50 [2] [µM]	GI50 [7] [µM]	TGI [7] [µM]	GI50 [3] [µM]	TGI [8] [µM]	GI50 [4] [µM]	GI50 [9] [µM]	TGI [9] [µM]	GI50 [6] [µM]	GI50 [10] [µM]	GI50 [1] [µM]	GI50 [8] [µM]	GI50 [5] [µM]	TGI [10] [µM]
COC(=O)[C@H]1CC(=O)C=C2CCCC21 (stereo partly specified)	> 100	> 100	> 100	> 100	> 100	> 100														
COc1ccc(C2c3cc4c(c(OC)c3CC3OCC(=O)C32)OCO4)cc1OC (stereo unspecified)		> 100	> 100	> 100	> 100	> 100	< 0.01	> 100	> 100	< 0.01	> 100	< 0.01	< 0.01	0.123	< 0.01	< 0.01				
CC1(C)C(=O)CCC(=O)C(C)(C)C2=CC=C(O2)C(C)(C)C(=O)CCC(=O)C(C)(C)C2=CC=C1O2	> 100	> 100		> 100	> 100	> 100			> 100											
CC(C)(C)C1CCC(CI)(N=[N+]=[N-])CC1 (stereo unspecified)	> 100	> 100	> 100	> 100	> 100	> 100			> 100											
O=c1c2cc(Br)ccc2[nH]c(=S)n1-c1ccccc1	> 100	> 100	> 100	> 100	> 100	> 100			> 100											
O=[N+]([O-])c1ccc(Oc2cccc(C(F)(F)F)c2)c([N+](=O)[O-])c1	18.7	9.81	15.2	16.5	9.82		3.24	4.08	17.6	3.78	3.93	4.56	3.17	10.2		2.33	5.46	1.67	3.81	5.38
COc1ccc(/C=c2\sc3nnc(CCC(=O)Nc4cccc(C(F)(F)F)c4)n3c2=O)cc1	> 100	> 100	> 100	> 100	> 100	> 100			> 100											
O=S1c2ccccc2N=C(c2ccc3ccccc3c2)CC1c1ccccc1F (stereo unspecified)	> 100	> 100	> 100	> 100	> 100	> 100			> 100											
CC1=C(C(=O)Nc2cccc(C(F)(F)F)c2)C(c2ccccc2F)C(C(=O)Nc2cccc(C(F)(F)F)c2)=C(C)N1	22.1	19.4		19.7	11	25.9			24.5											
CN(C(=O)C12C3C4C1C1C2C3C41C(=O)N(C)C(C)(C)C)C(C)(C)C (stereo unspecified)		> 50	> 50	> 50		> 50														
CC(C)(C)C1CCP(=O)(c2ccccc2)CC1 (stereo unspecified)	> 100	> 100	> 100	> 100	> 100	> 100			> 100											
CS(=O)/C(C#N)=C\C=C\c1cccc(Cl)c1 (stereo unspecified)	12.2	12.2	3.54	16.8	19.1	26.4	3.21			1.18	10.6	2.99	2.73	11.7	10.6	1.45	2.41	2.34	4.44	3.32
O=c1[nH]cc(CO)c(=O)[nH]1	> 100	> 100	> 100	> 100	> 100	> 100	> 100	> 100	> 100	> 100	> 100	> 100	> 100	> 100	> 100		> 100	> 100	> 100	
Cc1nn2c(=O)n(-c3cccc(-n4nnc5c(-c6ccccc6)c(C)nn5c4=O)c3C)nnc2c1-c1ccccc1	70.2	> 100	> 100	> 100	17.5	> 100			> 100											
Cc1ccc(NC(C(=O)c2ccccc2)c2ccccc2)cc1 (stereo unspecified)	8.42	15.6	> 100	> 100		58.2	4.02	21.6	> 100	3.93	12.7	4.08	13	> 100	15.8	3.18	2.8	2.63		15.4
COc1cc(-c2ccccc2)c(OC)cc1CCl	> 100	> 100	> 100	> 100	> 100	> 100			> 100											
Cc1ccc(C)c(NC(=O)C(=O)CC(=O)c2cccc3ccccc23)c1	> 100	> 100	> 100	> 100	> 100	> 100			> 100											
C=C(CS(=O)(=O)c1ccccc1)C(=O)OCC	25.9	31.9	13.8	37.1	35	28			34.8											
COc1cc(C2CC(=O)c3c(C)nn(-c4nc5ccccc5[nH]4)c3C2)cc(OC)c1OC (stereo unspecified)	> 100	> 100	> 100			> 100	3.34	> 100	> 100	14.6	> 100				4.12	> 100	> 100	> 100		> 100
COc1ccc2oc(-c3cc4cc(OC)ccc4o3)cc2c1	> 100	> 100	> 100	> 100	> 100	> 100			> 100											
Cc1cc(C(=O)N2CCN(C)CC2)c2c(=O)n(-c3ccccc3)c(=O)n(CC(O)CN3CCN(c4ncccn4)CC3)c2n1 (stereo unspecified)		> 100	> 100		> 100	> 100	> 100	> 100	> 100	> 100	> 100		> 100	> 100	> 100	> 100		> 100	> 100	> 100
NC(=O)c1ccccc1NC(=O)C(=O)Nc1n[nH]c(N)n1	> 100	> 100	> 100	> 100	> 100	> 100			> 100											

From PubChem BioAssay (NCI)
